Test results from patent US8557805B2, “Fused ring compound and use thereof” (Takeda Pharmaceutical Company Limited, priority 2008, dated 2013).

| Structure (SMILES) | melting point [°C] |
| --- | --- |
| CS(=O)(=O)c1ccc(Oc2cc(OC3CCOCC3)c3[nH]c(C4=NCC(CC(N)=O)S4)cc3c2)cc1 (stereo not shown) [Example 5, 2-(2-{5-[4-(Methylsulfonyl)phenoxy]-7-(tetrahydro-2H-pyran-4-yloxy)-1H-indol-2-yl}-4,5-dihydro-1,3-thiazol-5-yl)acetamide] | 176 to 177 |
| CS(=O)(=O)c1ccc(Oc2cc(OC3CCOCC3)c3[nH]c(C4=NCC(CCO)S4)cc3c2)nc1 (stereo not shown) [Example 13, 2-{2-[5-{[5-(Methylsulfonyl)pyridin-2-yl]oxy}-7-(tetrahydro-2H-pyran-4-yloxy)-1H-indol-2-yl]-4,5-dihydro-1,3-thiazol-5-yl}ethanol] | 165 to 166 |
| CS(=O)(=O)c1ccc(Oc2cc(OC3CCOCC3)c3[nH]c(C4=NCC(CC(N)=O)S4)cc3c2)nc1 (stereo not shown) [Example 16, 2-{2-[5-{[5-(Methylsulfonyl)pyridin-2-yl]oxy}-7-(tetrahydro-2H-pyran-4-yloxy)-1H-indol-2-yl]-4,5-dihydro-1,3-thiazol-5-yl}acetamide] | 188 to 190 |
| CS(=O)(=O)c1ccc(Oc2cc(OC3CCOCC3)c3[nH]c(C4=NCC(CC(=O)N5CC(O)C5)S4)cc3c2)nc1 (stereo not shown) [Example 18, 1-({2-[5-{[5-(Methylsulfonyl)pyridin-2-yl]oxy}-7-(tetrahydro-2H-pyran-4-yloxy)-1H-indol-2-yl]-4,5-dihydro-1,3-thiazol-5-yl}acetyl)azetidin-3-ol] | 180 to 181 |
| CS(=O)(=O)Cc1ccc(Oc2cc(OC3CCOCC3)c3[nH]c(C4=NCC(CC(N)=O)S4)cc3c2)cn1 (stereo not shown) [Example 26, 2-{2-[5-({6-[(Methylsulfonyl)methyl]pyridin-3-yl}oxy)-7-(tetrahydro-2H-pyran-4-yloxy)-1H-indol-2-yl]-4,5-dihydro-1,3-thiazol-5-yl}acetamide] | 164 to 167 |
| CNC(=O)CC1CN=C(c2cc3cc(Oc4ccc(CS(C)(=O)=O)nc4)cc(OC4CCOCC4)c3[nH]2)S1 (stereo not shown) [Example 27, N-Methyl-2-{2-[5-({6-[(methylsulfonyl)methyl]pyridin-3-yl}oxy)-7-(tetrahydro-2H-pyran-4-yloxy)-1H-indol-2-yl]-4,5-dihydro-1,3-thiazol-5-yl}acetamide] | 157 to 158 |
| CS(=O)(=O)c1ccc(Oc2cc(OC3CCOCC3)c3[nH]c(C4=NCC(CC(N)=O)S4)cc3c2)cn1 (stereo not shown) [Example 31, 2-{2-[5-{[6-(Methylsulfonyl)pyridin-3-yl]oxy}-7-(tetrahydro-2H-pyran-4-yloxy)-1H-indol-2-yl]-4,5-dihydro-1,3-thiazol-5-yl}acetamide] | 136 to 138 |
| CNC(=O)CC1CN=C(c2cc3cc(Oc4ccc(S(C)(=O)=O)nc4)cc(OC4CCOCC4)c3[nH]2)S1 (stereo not shown) [Example 34, N-methyl-2-{2-[5-{[6-(Methylsulfonyl)pyridin-3-yl]oxy}-7-(tetrahydro-2H-pyran-4-yloxy)-1H-indol-2-yl]-4,5-dihydro-1,3-thiazol-5-yl}acetamide] | 143 to 144 |
| CC(C)(O)CNC(=O)CC1CN=C(c2cc3cc(Oc4ccc(S(C)(=O)=O)nc4)cc(OC4CCOCC4)c3[nH]2)S1 (stereo not shown) [Example 39, N-(2-Hydroxy-2-methylpropyl)-2-{2-[5-{[6-(methylsulfonyl)pyridin-3-yl]oxy}-7-(tetrahydro-2H-pyran-4-yloxy)-1H-indol-2-yl]-4,5-dihydro-1,3-thiazol-5-yl}acetamide] | 195 to 196 |
| CC1(CNC(=O)CC2CN=C(c3cc4cc(Oc5ccc(S(C)(=O)=O)nc5)cc(OC5CCOCC5)c4[nH]3)S2)COC1 (stereo not shown) [Example 40, N-[(3-Methyloxetan-3-yl)methyl]-2-{2-[5-{[6-(methylsulfonyl)pyridin-3-yl]oxy}-7-(tetrahydro-2H-pyran-4-yloxy)-1H-indol-2-yl]-4,5-dihydro-1,3-thiazol-5-yl}acetamide] | 189 to 190 |
